Results published in patent US8846733B2, “Oxazolyl-methylether derivatives as ALX receptor agonists” (Actelion Pharmaceuticals Ltd., priority 2010, dated 2014).

molecular target: T1, recombinant human ALX receptor (Homo sapiens, UniProt P25090); experiment: Intracellular calcium measurements (FLIPR), ALX receptor agonistic activity; format: cell-based; conditions: HEK293-hALXR-Gα16 cells; Table 1, exemplified compounds
T1 construct: expressed in transfected cells; host or cells: HEK293 (HEK293-hALXR-Gα16)
T1 sequence (P25090 1-351): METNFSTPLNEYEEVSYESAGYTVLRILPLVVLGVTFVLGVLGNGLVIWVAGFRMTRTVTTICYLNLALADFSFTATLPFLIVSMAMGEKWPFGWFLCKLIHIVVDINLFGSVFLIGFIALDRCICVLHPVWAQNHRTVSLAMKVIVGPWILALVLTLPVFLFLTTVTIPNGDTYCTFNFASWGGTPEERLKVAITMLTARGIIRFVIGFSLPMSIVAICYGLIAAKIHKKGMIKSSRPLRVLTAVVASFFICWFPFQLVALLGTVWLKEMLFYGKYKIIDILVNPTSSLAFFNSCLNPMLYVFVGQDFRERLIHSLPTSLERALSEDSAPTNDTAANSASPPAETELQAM
Experimental: The ALX receptor agonistic activity of the compounds of formula (I) is determined in accordance with the following experimental method.
Intracellular Calcium Measurements:
Cells expressing recombinant human ALX receptor and the G-protein Gα16 (HEK293-hALXR-Gα16) were grown to 80% confluency in Growing Medium (GM). Cells were detached from culture dishes with a cell dissociation buffer (Invitrogen, 13151-014), and collected by centrifugation at 1,000 rpm at rt for 5 min in Assay Buffer (AB) (equal parts of Hank's BSS (Gibco, 14065-049) and DMEM without Phenol Red (Gibco, 11880-028)). After 60 min incubation at 37° C. under 5% CO2 in AB supplemented with 1 μM Fluo-4 (AM) (Invitrogen, F14202) and 20 mM HEPES (Gibco, 15630-056), the cells were washed and resuspended in AB. They were then seeded onto 384-well FLIPR assay plates (Greiner, 781091) at 50,000 cells in 70 μl per well and sedimented by centrifugation at 1,000 rpm for 1 min. Stock solutions of test compounds were made up at a concentration of 10 mM in DMSO, and serially diluted in AB to concentrations required for activation dose response curves. WKYMVm (Phoenix Peptides) was used as a reference agonist. A FLIPR Tetra instrument (Molecular Devices) was operated according to the manufacturer's standard instructions, adding 4 μl of test compound dissolved at 10 mM in DMSO and diluted prior to the experiment in assay buffer to obtain the desired final concentration. Changes in fluorescence were monitored before and after the addition of test compounds at lex=488 nm and lem=540 nm. Emission peak values above base level after compounds addition were exported after base line subtraction. Values were normalized to high-level control (WKYMVm compound, 10 nM final concentration) after subtraction of the base line value (AB addition).

Going from `COCc1coc(Cn2ncc(NC(=O)c3ncoc3-c3cccc(OC)c3)n2)n1` [Example 7, N-(2-((4-(Methoxymethyl)oxazol-2-yl)methyl)-2H-1,2,3-triazol-4-yl)-5-(3-methoxyphenyl)oxazole-4-carboxamide] to `COCc1coc(Cn2ncc(NC(=O)c3ncoc3-c3cccc(C)c3)n2)n1` [Example 10, N-(2-((4-(Methoxymethyl)oxazol-2-yl)methyl)-2H-1,2,3-triazol-4-yl)-5-(m-tolyl)oxazole-4-carboxamide], the EC50 falls from 17.5 nM to 4.6 nM (3.8-fold). The second is the more potent here.

Compared with `CCOCc1coc(Cn2ncc(NC(=O)c3ncoc3-c3ccccc3)n2)n1` [Example 15, N-(2-((4-(ethoxymethyl)oxazol-2-yl)methyl)-2H-1,2,3-triazol-4-yl)-5-phenyloxazole-4-carboxamide], `COCc1coc(Cn2ncc(NC(=O)c3ncoc3-c3ccccc3)n2)n1` [Example 13, N-(2-((4-(Methoxymethyl)oxazol-2-yl)methyl)-2H-1,2,3-triazol-4-yl)-5-phenyloxazole-4-carboxamide] is 1.7-fold lower in EC50: 8.6 nM for the first, 5 nM for the second.

`COCc1coc(Cn2ncc(NC(=O)c3nc(C)oc3-c3ccccc3)n2)n1` [Example 3, N-(2-((4-(Methoxymethyl)oxazol-2-yl)methyl)-2H-1,2,3-triazol-4-yl)-2-methyl-5-phenyloxazole-4-carboxamide] and `COCc1coc(Cn2ncc(NC(=O)c3nc(C)oc3-c3cccc(F)c3)n2)n1` [Example 9, 5-(3-Fluorophenyl)-N-(2-((4-(methoxymethyl)oxazol-2-yl)methyl)-2H-1,2,3-triazol-4-yl)-2-methyloxazole-4-carboxamide] are within 1.5-fold of each other in EC50: 4.3 nM for the first, 3.7 nM for the second.

Compared with `CCOCc1coc(Cn2ncc(NC(=O)c3nc(C)oc3-c3cccc(C)c3)n2)n1` [Example 14, N-(2-((4-(ethoxymethyl)oxazol-2-yl)methyl)-2H-1,2,3-triazol-4-yl)-2-methyl-5-(m-tolyl)oxazole-4-carboxamide], `COCc1coc(Cn2ncc(NC(=O)c3nc(C)oc3-c3cccc(Cl)c3)n2)n1` [Example 4, 5-(3-Chlorophenyl)-N-(2-((4-(methoxymethyl)oxazol-2-yl)methyl)-2H-1,2,3-triazol-4-yl)-2-methyloxazole-4-carboxamide] is 3.2-fold lower in EC50: 6.7 nM for the first, 2.1 nM for the second.

Going from `COCc1coc(Cn2ncc(NC(=O)c3ncoc3-c3cccc(Cl)c3)n2)n1` [Example 6, 5-(3-Chlorophenyl)-N-(2-((4-(methoxymethyl)oxazol-2-yl)methyl)-2H-1,2,3-triazol-4-yl)oxazole-4-carboxamide] to `COCc1coc(Cn2ncc(NC(=O)c3nc(C)oc3-c3cccc(OC)c3)n2)n1` [Example 8, N-(2-((4-(Methoxymethyl)oxazol-2-yl)methyl)-2H-1,2,3-triazol-4-yl)-5-(3-methoxyphenyl)-2-methyloxazole-4-carboxamide], the EC50 rises from 4 nM to 8.8 nM (2.2-fold).

`COCc1coc(Cn2ncc(NC(=O)c3nc(C)oc3-c3cccc(OC(F)(F)F)c3)n2)n1` [Example 11, N-(2-((4-(Methoxymethyl)oxazol-2-yl)methyl)-2H-1,2,3-triazol-4-yl)-2-methyl-5-(3-(trifluoromethoxy)phenyl)oxazole-4-carboxamide] and `COCc1coc(Cn2ncc(NC(=O)c3nc(C)oc3-c3cccc(C(F)(F)F)c3)n2)n1` [Example 5, N-(2-((4-(Methoxymethyl)oxazol-2-yl)methyl)-2H-1,2,3-triazol-4-yl)-2-methyl-5-(3-(trifluoromethyl)phenyl)oxazole-4-carboxamide] are within 1.5-fold of each other in EC50: 7.4 nM for the first, 5.6 nM for the second.

First: COC(C)(C)c1coc(Cn2ncc(NC(=O)c3nc(C)oc3-c3cccc(C)c3)n2)n1 [Example 1, N-(2-((4-(2-Methoxypropan-2-yl)oxazol-2-yl)methyl)-2H-1,2,3-triazol-4-yl)-2-methyl-5-(m-tolyl)oxazole-4-carboxamide]
Second: COCc1coc(Cn2ncc(NC(=O)c3nc(C4CC4)oc3-c3cccc(C)c3)n2)n1 [Example 12, 2-Cyclopropyl-N-(2-((4-(methoxymethyl)oxazol-2-yl)methyl)-2H-1,2,3-triazol-4-yl)-5-(m-tolyl)oxazole-4-carboxamide]
The EC50 of the first is 1.8-fold lower: 6.6 nM for the first, 11.6 nM for the second. The first is the more potent here.

same assay, conditions: HEK293-hALXR-Gα16 cells; Table 2, compound failing within formula I of WO 2009/077990

Compared with `CC(=O)c1csc(Cn2ncc(NC(=O)c3ncoc3-c3ccccc3)n2)n1` [example 39], `CC(=O)c1nc(Cn2ncc(NC(=O)c3ncoc3-c3ccccc3)n2)cs1` [example 45] is 11-fold higher in EC50: 8.1 nM for the first, 93 nM for the second.

`CC(=O)c1ncc(Cn2ncc(NC(=O)c3ncoc3-c3ccccc3)n2)s1` [example 67] and `CC(=O)c1cnc(Cn2ncc(NC(=O)c3ncoc3-c3ccccc3)n2)s1` [example 73] are within 1.5-fold of each other in EC50: 73 nM for the first, 88 nM for the second.

Compared with `CC(=O)c1nc(Cn2ncc(NC(=O)c3ncoc3-c3ccccc3)n2)co1`, `CC(=O)c1nc(Cn2ncc(NC(=O)c3nc(C)oc3-c3cccc(C)c3)n2)co1` is 1.7-fold lower in EC50: 1.5 nM for the first, 0.9 nM for the second.

same assay, conditions: HEK293-hALXR-Gα16 cells; Table 2, reference compounds

First: COCc1cnc(Cn2ncc(NC(=O)c3nc(C)oc3-c3cccc(C)c3)n2)s1 [reference compound 2, N-(2-((5-(Methoxymethyl)thiazol-2-yl)methyl)-2H-1,2,3-triazol-4-yl)-2-methyl-5-(m-tolyl)oxazole-4-carboxamide]
Second: COCc1ncc(Cn2ncc(NC(=O)c3nc(C)oc3-c3cccc(C)c3)n2)s1 [reference compound 1, N-(2-((2-(Methoxymethyl)thiazol-5-yl)methyl)-2H-1,2,3-triazol-4-yl)-2-methyl-5-(m-tolyl)oxazole-4-carboxamide]
The EC50 of the first is 1.9-fold lower: 2540 nM for the first, 4810 nM for the second.

Going from `COCc1nc(Cn2ncc(NC(=O)c3ncoc3-c3ccccc3)n2)cs1` [reference compound 6, N-(2-((2-(methoxymethyl)thiazol-4-yl)methyl)-2H-1,2,3-triazol-4-yl)-5-phenyloxazole-4-carboxamide] to `COCc1csc(Cn2ncc(NC(=O)c3ncoc3-c3ccccc3)n2)n1` [reference compound 5, N-(2-((4-(methoxymethyl)thiazol-2-yl)methyl)-2H-1,2,3-triazol-4-yl)-5-phenyloxazole-4-carboxamide], the EC50 falls from 146 nM to 48 nM (3-fold). The second is the more potent here.

Going from `COCc1ccc(Cn2ncc(NC(=O)c3ncoc3-c3ccccc3)n2)o1` [reference compound 3, N-(2-((5-(methoxymethyl)furan-2-yl)methyl)-2H-1,2,3-triazol-4-yl)-5-phenyloxazole-4-carboxamide] to `COCc1ccc(Cn2ncc(NC(=O)c3ncoc3-c3ccccc3)n2)s1` [reference compound 4, N-(2-((5-(methoxymethyl)thiophen-2-yl)methyl)-2H-1,2,3-triazol-4-yl)-5-phenyloxazole-4-carboxamide], the EC50 rises from 498 nM to 2300 nM (4.6-fold). The first is the more potent here.

`COCc1cnc(Cn2ncc(NC(=O)c3ncoc3-c3ccccc3)n2)s1` [reference compound 8, N-(2-((5-(methoxymethyl)thiazol-2-yl)methyl)-2H-1,2,3-triazol-4-yl)-5-phenyloxazole-4-carboxamide] and `COCc1ncc(Cn2ncc(NC(=O)c3ncoc3-c3ccccc3)n2)s1` [reference compound 7, N-(2-((2-(methoxymethyl)thiazol-5-yl)methyl)-2H-1,2,3-triazol-4-yl)-5-phenyloxazole-4-carboxamide] are within 1.5-fold of each other in EC50: 5950 nM for the first, 8130 nM for the second.

First: COC(C)(C)c1nc(Cn2ncc(NC(=O)c3ncoc3-c3ccccc3)n2)co1 [reference compound 9, N-(2-((2-(2-methoxypropan-2-yl)oxazol-4-yl)methyl)-2H-1,2,3-triazol-4-yl)-5-phenyloxazole-4-carboxamide]
Second: COCc1nc(Cn2ncc(NC(=O)c3nc(C)oc3-c3cccc(C)c3)n2)co1 [reference compound 10, N-(2-((2-(Methoxymethyl)oxazol-4-yl)methyl)-2H-1,2,3-triazol-4-yl)-2-methyl-5-(m-tolyl)oxazole-4-carboxamide]
The EC50 of the first is 85-fold higher: 685 nM for the first, 8.1 nM for the second.
